Active and inactive are the calls of the source. The rule behind the calls is not given here.
What was measured:
Mu-type opioid receptor [1] = molecular target: T1, Mu-type opioid receptor (Homo sapiens, UniProt P35372); test: Agonist activity at human MOR expressed in CHO-K1 cells co-expressed with Galphai by cAMP assay relative to control; format: functional, cell-based
Nociceptin receptor [2] = molecular target: T2, Nociceptin receptor (Homo sapiens, UniProt P41146); test: Agonist activity at human NOP receptor expressed in CHO-K1 cells co-expressed with Galphai by cAMP assay relative to control; format: functional, cell-based
[3] = Drug concentration in mouse intestine at 2 mg/kg,sc measured after 5 mins by ICP-MS analysis; format: ADME, organism-based; conditions: read-out: Ct
Mus musculus [4] = test: Antinociceptive activity in wild type C57BL/6 mouse assessed as maximum possible effect at 12 mg/kg measured upto 60 mins by tail-flick test; format: functional; conditions: 1 h
Nociceptin receptor [5] = molecular target: T2, Nociceptin receptor; test: Agonist activity at human NOP receptor expressed in CHO-K1 cells assessed as decrease in intracellular cAMP level at 1 uM in presence of BAN ORL 24; format: functional, cell-based; conditions: filed as agonist
Nociceptin receptor [6] = molecular target: T2, Nociceptin receptor; test: Displacement of [3H]-Nociceptin from human NOP receptor expressed in CHO-K1 cell membrane assessed as inhibition constant; format: cell membranes
Mus musculus [7] = test: Antinociceptive activity in thermal stimulated MOR-knockout C57BL/6 mouse assessed as delay in flick tail at 252.8 microg/kg, sc measured upto 120 mins by tail flick test; format: functional, organism-based; conditions: dose 252.8 µg/kg
Mus musculus [8] = test: Induction of motivational effect in C57BL/6 mouse assessed as increase in reward behaviour at 284 microg/kg, sc administered for 4 days and measured on day 6 by CPP analysis; format: functional, organism-based; conditions: dose 284.0 µg/kg, time 6.0 day
[9] = Drug concentration in mouse brain at 2 mg/kg,sc measured after 5 mins by ICP-MS analysis; format: ADME, organism-based; conditions: read-out: Ct
Mus musculus [10] = test: Antinociceptive activity in thermal stimulated hMOR/mMOR knockout C57BL/6 mouse at 402 microg/kg,sc measured after 30 to 60 mins by tail flick test; format: functional, organism-based; conditions: dose 402.0 µg/kg, time 30-60 min
Mu-type opioid receptor [11] = molecular target: T1, Mu-type opioid receptor; test: Agonist activity at human MOR expressed in CHO-K1 cells co-expressed with Galphai by cAMP assay; format: functional, cell-based
[12] = Drug concentration in mouse intestine at 2 mg/kg,sc measured after 60 mins by ICP-MS analysis; format: ADME, organism-based; conditions: read-out: Ct
Mus musculus [13] = test: Antinociceptive activity in thermal stimulated wild type C57BL/6 mouse at 284 to 568 microg/kg, sc measured at 30 to 60 mins by tail flick test; format: functional, organism-based; conditions: dose 284-568 µg/kg, time 30-60 min
Nociceptin receptor [14] = molecular target: T2, Nociceptin receptor; test: Agonist activity at human NOP receptor expressed in CHO-K1 cells assessed as beta arrestin-2 recruitment; format: functional, cell-based
[15] = Drug concentration in mouse brain at 2 mg/kg,sc measured after 60 mins by ICP-MS analysis; format: ADME, organism-based; conditions: read-out: Ct
Nociceptin receptor [16] = molecular target: T2, Nociceptin receptor; test: Agonist activity at human NOP receptor expressed in CHO-K1 cells co-expressed with Galphai by cAMP assay; format: functional, cell-based
[17] = Drug concentration in mouse plasma at 2 mg/kg,sc measured after 60 mins by ICP-MS analysis; format: ADME, organism-based
Mu-type opioid receptor [18] = molecular target: T1, Mu-type opioid receptor; test: Agonist activity at human MOR expressed in CHO-K1 cells assessed as decrease in intracellular cAMP level at 1 uM in presence of naltrexone; format: functional, cell-based; conditions: filed as agonist
Mus musculus [19] = test: Antinociceptive activity in thermal stimulated sc dosed hMOR/mMOR knockout C57BL/6 mouse measured upto 120 mins by tail flick test; format: functional; conditions: C57BL/6, 2 h
[20] = Drug concentration in mouse plasma at 2 mg/kg,sc measured after 5 mins by ICP-MS analysis; format: ADME, organism-based
Mu-type opioid receptor [21] = molecular target: T1, Mu-type opioid receptor; test: Displacement of [3H]-Diprenorphine from human MOR expressed in CHO-K1 cell membrane assessed as inhibition constant; format: cell membranes
Mus musculus [22] = test: Antinociceptive activity in thermal stimulated hMOR/mMOR knockout C57BL/6 mouse assessed as drug tolerance at 402 microg/kg, sc administered twice daily for 5 days and measured on day 1, 3, and 5 after 30 mins post drug treatment by tail flick test; format: functional, organism-based; conditions: dose 402.0 µg/kg, time 5.0 day
Mu-type opioid receptor [23] = molecular target: T1, Mu-type opioid receptor; test: Agonist activity at human MOR expressed in CHO-K1 cells assessed as beta arrestin-2 recruitment; format: functional, cell-based
Mus musculus [24] = test: Induction of motivational effect in C57BL/6 mouse assessed as increase in number of jumps at 284 microg/kg, sc administered daily twice for 5 days by CPP analysis; format: functional, organism-based; conditions: dose 284.0 µg/kg, time 5.0 day
Mus musculus [25] = test: Antinociceptive activity in thermal stimulated sc dosed wild type C57BL/6 mouse measured upto 120 mins by tail flick test; format: functional; conditions: C57BL/6, 2 h
Mus musculus [26] = test: Antinociceptive activity in thermal stimulated wild type C57BL/6 mouse assessed as drug tolerance at 568 microg/kg, sc administered twice daily for 5 days and measured on day 1, 3, and 5 after 30 mins post drug treatment by tail flick test; format: functional, organism-based; conditions: dose 568.0 µg/kg, time 5.0 day
Mus musculus [27] = test: Induction of motivational effect in C57BL/6 mouse assessed as increase in number of jumps at 2.5 microg/kg, sc administered daily twice for 5 days by CPP analysis; format: functional, organism-based; conditions: dose 2.5 µg/kg, time 5.0 day

T2 sequence (P41146 whole entry): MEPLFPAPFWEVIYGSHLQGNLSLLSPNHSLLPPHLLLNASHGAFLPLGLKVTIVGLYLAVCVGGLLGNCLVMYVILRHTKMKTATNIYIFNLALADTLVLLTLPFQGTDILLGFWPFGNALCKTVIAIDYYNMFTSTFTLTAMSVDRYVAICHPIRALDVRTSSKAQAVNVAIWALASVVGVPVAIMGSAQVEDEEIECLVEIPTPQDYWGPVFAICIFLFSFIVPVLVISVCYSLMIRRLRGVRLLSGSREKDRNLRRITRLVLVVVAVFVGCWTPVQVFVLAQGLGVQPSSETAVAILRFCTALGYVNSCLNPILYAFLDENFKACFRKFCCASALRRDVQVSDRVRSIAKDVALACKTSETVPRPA
T1 sequence (P35372 whole entry): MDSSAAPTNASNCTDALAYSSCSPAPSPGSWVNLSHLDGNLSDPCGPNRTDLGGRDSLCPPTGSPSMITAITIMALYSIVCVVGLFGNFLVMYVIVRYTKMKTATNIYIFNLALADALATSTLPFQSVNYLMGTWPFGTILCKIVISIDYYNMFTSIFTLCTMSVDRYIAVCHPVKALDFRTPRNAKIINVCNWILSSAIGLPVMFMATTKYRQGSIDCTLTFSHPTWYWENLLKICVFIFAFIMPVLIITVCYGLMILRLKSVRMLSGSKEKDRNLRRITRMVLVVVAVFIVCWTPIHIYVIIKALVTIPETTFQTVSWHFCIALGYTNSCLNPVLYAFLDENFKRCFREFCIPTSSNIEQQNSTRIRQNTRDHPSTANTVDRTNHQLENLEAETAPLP

CN(C)C(CNC(=O)NCc1cccc(F)c1)c1cccc(F)c1 (stereo unspecified)
Emax (Mu-type opioid receptor [1]; filed as agonist): 91.2% | Emax (Nociceptin receptor [2]; filed as agonist): 89.8%

CN(C)C(CNC(=O)NCc1cccc(Cl)c1)c1cccc(F)c1 (stereo unspecified)
concentration at 5 min [3]: 1290 ng/g | MPE (Mus musculus [4]): 100% | Activity (Nociceptin receptor [5]): Active | Ki (Nociceptin receptor [6]): 0.2 nM | Activity (Mus musculus [7]): inactive | Emax (Mu-type opioid receptor [1]; filed as agonist): 92.5% | Activity (Mus musculus [8]): inactive | concentration at 5 min [9]: 838 ng/g | Activity (Mus musculus [10]): Active | EC50 (Mu-type opioid receptor [11]): 0.000102 nM | concentration at 1 h [12]: 454 ng/g | Activity (Mus musculus [13]): Active | EC50 (Nociceptin receptor [14]): 0.2 nM | Emax (Nociceptin receptor [2]; filed as agonist): 91.6% | concentration at 1 h [15]: 237 ng/g | EC50 (Nociceptin receptor [16]): 0.000126 nM | concentration at 1 h [17]: 119 ng/mL | Activity (Mu-type opioid receptor [18]): Active | ED50 (Mus musculus [19]): 0.402 mg/kg | concentration at 5 min [20]: 673 ng/mL | Ki (Mu-type opioid receptor [21]): 0.4 nM | Activity (Mus musculus [22]): inactive | EC50 (Mu-type opioid receptor [23]): 3.99 nM | Activity (Mus musculus [24]): inactive | ED50 (Mus musculus [25]): 0.284 mg/kg | Activity (Mus musculus [26]): inactive

CN(C)C(CNC(=O)NCCc1ccc(Cl)cc1)c1cccc(F)c1 (stereo unspecified)
Emax (Mu-type opioid receptor [1]; filed as agonist): 72.4% | Emax (Nociceptin receptor [2]; filed as agonist): 53.9% | EC50 (Nociceptin receptor [16]): 0.61 nM

Cc1ccc(CNC(=O)NCC(c2cccc(F)c2)N(C)C)cc1 (stereo unspecified)
Emax (Mu-type opioid receptor [1]; filed as agonist): 88% | Emax (Nociceptin receptor [2]): < 20%

CN(C)C(CNC(=O)NC1CCCC1)c1cccc(F)c1 (stereo unspecified)
Emax (Mu-type opioid receptor [1]): < 20% | Emax (Nociceptin receptor [2]; filed as agonist): 67.1% | EC50 (Nociceptin receptor [16]): 2.6 nM

CN(C)C(CNC(=O)NCCc1ccccc1)c1cccc(F)c1 (stereo unspecified)
Emax (Mu-type opioid receptor [1]; filed as agonist): 86.6% | EC50 (Mu-type opioid receptor [11]): 21 nM | Emax (Nociceptin receptor [2]; filed as agonist): 72% | EC50 (Nociceptin receptor [16]): 2.96 nM

Cc1ccc(CCNC(=O)NCC(c2cccc(F)c2)N(C)C)cc1 (stereo unspecified)
Emax (Mu-type opioid receptor [1]; filed as agonist): 80.7% | EC50 (Mu-type opioid receptor [11]): 15.1 nM | Emax (Nociceptin receptor [2]; filed as agonist): 76.9% | EC50 (Nociceptin receptor [16]): 209 nM

Cc1cccc(CCNC(=O)NCC(c2cccc(F)c2)N(C)C)c1 (stereo unspecified)
MPE (Mus musculus [4]): 0% | Emax (Mu-type opioid receptor [1]; filed as agonist): 89.7% | Emax (Nociceptin receptor [2]; filed as agonist): 67%

CN1CC[C@]23c4c5ccc(O)c4O[C@H]2[C@@H](O)C=C[C@H]3[C@H]1C5
Activity (Mus musculus [27]): Active

CN(C)C(CNC(=O)NCCc1ccc(F)cc1)c1cccc(F)c1 (stereo unspecified)
Emax (Mu-type opioid receptor [1]; filed as agonist): 81.1% | Emax (Nociceptin receptor [2]; filed as agonist): 58.4% | EC50 (Nociceptin receptor [16]): 0.000126 nM

CN(C)C(CNC(=O)Nc1ccc(Cl)c(Cl)c1)c1cccc(F)c1 (stereo unspecified)
Emax (Mu-type opioid receptor [1]; filed as agonist): 68.5% | Emax (Nociceptin receptor [2]; filed as agonist): 74.1% | EC50 (Nociceptin receptor [16]): 37.2 nM

CN(C)C(CNC(=O)NCCc1cccc(F)c1)c1cccc(F)c1 (stereo unspecified)
MPE (Mus musculus [4]): 0% | Emax (Mu-type opioid receptor [1]; filed as agonist): 90.8% | EC50 (Mu-type opioid receptor [11]): 0.000374 nM | Emax (Nociceptin receptor [2]; filed as agonist): 92.6%

CN(C)C(CNC(=O)NCc1ccc(F)cc1)c1cccc(F)c1 (stereo unspecified)
MPE (Mus musculus [4]): 100% | Emax (Mu-type opioid receptor [1]; filed as agonist): 96.1% | Emax (Nociceptin receptor [2]; filed as agonist): 93.2%

CN(C)C(CNC(=O)NCc1cccc(OC(F)(F)F)c1)c1cccc(F)c1 (stereo unspecified)
Emax (Mu-type opioid receptor [1]; filed as agonist): 77.9% | EC50 (Mu-type opioid receptor [11]): 0.0164 nM | Emax (Nociceptin receptor [2]; filed as agonist): 80.4% | EC50 (Nociceptin receptor [16]): 0.02 nM

CN(C)C(CNC(=O)Nc1cccc(Cl)c1)c1cccc(F)c1 (stereo unspecified)
Emax (Mu-type opioid receptor [1]; filed as agonist): 72.5% | EC50 (Mu-type opioid receptor [11]): 0.1 nM | Emax (Nociceptin receptor [2]): < 20%

CN(C)C(CNC(=O)NCc1ccc(Cl)cc1)c1cccc(F)c1 (stereo unspecified)
Emax (Mu-type opioid receptor [1]; filed as agonist): 84.7% | EC50 (Mu-type opioid receptor [11]): 0.00033 nM | Emax (Nociceptin receptor [2]): < 20%

CN(C)C(CNC(=O)NCc1ccc(OC(F)(F)F)cc1)c1cccc(F)c1 (stereo unspecified)
Emax (Mu-type opioid receptor [1]; filed as agonist): 76.9% | EC50 (Mu-type opioid receptor [11]): 1.52 nM | Emax (Nociceptin receptor [2]; filed as agonist): 61.9% | EC50 (Nociceptin receptor [16]): 2420 nM

CN(C)C(CNC(=O)NCc1cccc(C(F)(F)F)c1)c1cccc(F)c1 (stereo unspecified)
Emax (Mu-type opioid receptor [1]; filed as agonist): 85.2% | EC50 (Mu-type opioid receptor [11]): 0.00066 nM | Emax (Nociceptin receptor [2]): < 20%

Cc1cccc(CNC(=O)NCC(c2cccc(F)c2)N(C)C)c1 (stereo unspecified)
Emax (Mu-type opioid receptor [1]; filed as agonist): 91.4% | EC50 (Mu-type opioid receptor [11]): 0.526 nM | Emax (Nociceptin receptor [2]; filed as agonist): 67.1% | EC50 (Nociceptin receptor [16]): 2130 nM

CN1CCc2ccccc2C1CNC(=O)c1ccc(Cl)c(Cl)c1 (stereo unspecified)
Emax (Mu-type opioid receptor [1]; filed as agonist): 93.6% | EC50 (Mu-type opioid receptor [11]): 0.0234 nM | Emax (Nociceptin receptor [2]; filed as agonist): 87% | EC50 (Nociceptin receptor [16]): 0.17 nM

CN(C)C(CNC(=O)NCCc1cccc(Cl)c1)c1cccc(F)c1 (stereo unspecified)
MPE (Mus musculus [4]): 0% | Emax (Mu-type opioid receptor [1]; filed as agonist): 89.9% | Emax (Nociceptin receptor [2]; filed as agonist): 91.6%

CN(C)C(CNC(=O)NCCc1ccc(C(F)(F)F)cc1)c1cccc(F)c1 (stereo unspecified)
MPE (Mus musculus [4]): 39.05% | Emax (Mu-type opioid receptor [1]; filed as agonist): 88.5% | EC50 (Mu-type opioid receptor [11]): 0.000501 nM | Emax (Nociceptin receptor [2]; filed as agonist): 57.5% | EC50 (Nociceptin receptor [16]): 0.06 nM

CN(C)C(CNC(=O)NCc1ccc(C(F)(F)F)cc1)c1cccc(F)c1 (stereo unspecified)
MPE (Mus musculus [4]): 0% | Emax (Mu-type opioid receptor [1]; filed as agonist): 93.3% | EC50 (Mu-type opioid receptor [11]): 0.19 nM | Emax (Nociceptin receptor [2]; filed as agonist): 92.3% | EC50 (Nociceptin receptor [16]): 0.71 nM

CN(C)C(CNC(=O)NCCc1cccc(C(F)(F)F)c1)c1cccc(F)c1 (stereo unspecified)
Emax (Mu-type opioid receptor [1]; filed as agonist): 74.1% | EC50 (Mu-type opioid receptor [11]): 0.0186 nM | Emax (Nociceptin receptor [2]): < 20%

CN(C)C(CNC(=O)NCCCc1ccccc1)c1cccc(F)c1 (stereo unspecified)
Emax (Mu-type opioid receptor [1]; filed as agonist): 80.2% | EC50 (Mu-type opioid receptor [11]): 0.631 nM | Emax (Nociceptin receptor [2]; filed as agonist): 66.6% | EC50 (Nociceptin receptor [16]): 0.711 nM

Source: ChEMBL document CHEMBL5620432 (Eur J Med Chem, 2023)
